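Each compound was tested at five concentrations against cells in 96-well plates for 48 hours. GI50: concentration for 50% inhibition of growth. TGI is the concentration that stops growth completely.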
How the values were obtained:
Assay in all cases: inhibition of tumour cell growth, NCI panel, 48 h
[1] = system: HS 578T breast
[2] = system: NCI-H460 lung
[3] = system: SR leukemia
[4] = system: MOLT-4 leukemia
[5] = system: MALME-3M melanoma
[6] = system: MDA-MB-468 breast
[7] = system: SNB-75 CNS
[8] = system: IGROV1 ovarian
[9] = system: A498 renal
[10] = system: HL-60(TB) leukemia
[11] = system: CAKI-1 renal
[12] = system: HOP-92 NSCLC
[13] = system: MDA-MB-435
[14] = system: NCI-H226 lung
[15] = system: MDA-MB-231 breast
[16] = system: HCT-15 colon
[17] = system: UACC-62 melanoma
[18] = system: RXF 393 renal
[19] = system: CCRF-CEM leukemia
[20] = system: SN12C renal
[21] = system: UACC-257 melanoma
[22] = system: NCI/ADR-RES ovarian
[23] = system: SK-MEL-2 melanoma
[24] = system: SF-295 CNS
[25] = system: OVCAR-3 ovarian
[26] = system: UO-31 renal
[27] = system: SW-620 colon
[28] = system: SK-MEL-5 melanoma
[29] = system: DU-145 prostate

**Q.** Which results are given for Cc1ccc(C(C)C)cc1Oc1cccc(-c2c(-c3ccc(C(F)(F)F)cc3)ncn2C2CCNCC2)n1?
**A.** GI50 [1]: 1680 nM; TGI [1]: 3.67 µM; GI50 [2]: 1630 nM; TGI [2]: 3.08 µM; GI50 [3]: 1610 nM; TGI [3]: 4.13 µM; GI50 [4]: 1690 nM; TGI [4]: 4.44 µM; GI50 [5]: 1430 nM; TGI [5]: 2770 nM; GI50 [6]: 1330 nM; TGI [6]: 2.73 µM; GI50 [7]: 1300 nM; TGI [7]: 2680 nM; GI50 [8]: 1340 nM; TGI [8]: 2670 nM; GI50 [9]: 1570 nM; TGI [9]: 3.05 µM; GI50 [10]: 1050 nM; TGI [10]: 3.36 µM; GI50 [11]: 1420 nM; TGI [11]: 2850 nM; GI50 [12]: 1350 nM; TGI [12]: 2840 nM; GI50 [13]: 1700 nM; TGI [13]: 3.19 µM; GI50 [14]: 1480 nM; TGI [14]: 3.01 µM; GI50 [15]: 1480 nM; TGI [15]: 2810 nM; GI50 [16]: 1360 nM; TGI [16]: 2690 nM; GI50 [17]: 1440 nM; TGI [17]: 2760 nM; GI50 [18]: 1340 nM; TGI [18]: 2720 nM; GI50 [19]: 2260 nM; TGI [19]: 27.9 µM; GI50 [20]: 1350 nM; TGI [20]: 2660 nM; GI50 [21]: 1750 nM; TGI [21]: 3.4 µM; GI50 [22]: 1600 nM; TGI [22]: 3.19 µM; GI50 [23]: 1820 nM; TGI [23]: 3.47 µM; GI50 [24]: 1530 nM; TGI [24]: 2970 nM; GI50 [25]: 1800 nM; TGI [25]: 3.28 µM; GI50 [26]: 1330 nM; TGI [26]: 2630 nM; GI50 [27]: 1470 nM; TGI [27]: 2910 nM; GI50 [28]: 1610 nM; TGI [28]: 2990 nM; GI50 [29]: 1680 nM; TGI [29]: 3.1 µM

**Q.** Which results are given for COc1cc(C(=O)/C=C/c2cc(-c3ccc4c(c3)OCO4)n[nH]2)cc(OC)c1OC?
**A.** GI50 [6]: 1400 nM; TGI [6]: 3.5 µM

**Q.** Which results are given for CN1CCC2(CC1)N=C(SCC(=O)Nc1cnc3ccccc3c1)C(c1ccc(Br)cc1)=N2?
**A.** GI50 [6]: 1760 nM; TGI [6]: 3.5 µM

**Q.** C[C@@H](Nc1cc(F)cc(F)c1)c1cc(C(=O)N(C)C)cc2c(=O)cc(N3CCOCC3)oc12 was tested. Which GI50 [6] did it give?
**A.** The GI50 was 692 nM.

**Q.** And the TGI [6]?
**A.** The TGI was 13.1 µM.

**Q.** With COC(=O)c1c[nH]c2cc(OC(C)C)c(OC(C)C)cc2c1=O as the molecule, how does the GI50 [6] read?
**A.** Its GI50 is over 100000 nM.

**Q.** And the TGI [6]?
**A.** The TGI was over 100 µM.

**Q.** How did the GI50 [6] turn out when COC(=O)[C@H](Cc1cn(C)cn1)NC(=O)[C@H](CC(=O)OCc1ccccc1)NC(=O)Nc1cc(C(F)(F)F)cc(C(F)(F)F)c1 was run?
**A.** The GI50 was 2100 nM.

**Q.** What about the TGI [6] of the same molecule?
**A.** Its TGI is 6.55 µM.

**Q.** Which results are given for CC[C@@H](C)/C=C(C)/C=C/C(=O)c1c(O)c(-c2ccc(OC(=O)[C@@]34CC[C@@](C)(C(=O)O3)C4(C)C)cc2)cn(O)c1=O?
**A.** GI50 [6]: 1320 nM; TGI [6]: 10.8 µM

**Q.** Which GI50 [6] does the source give for COc1cccc2c1C(=O)c1c(O)c3c(c(O)c1C2=O)C[C@@](O)(/C(CO)=N/NC(=O)CCCCCN1C(=O)C=CC1=O)C[C@@H]3O[C@H]1C[C@H](N)[C@H](O)[C@H](C)O1 here?
**A.** Its GI50 is 438 nM.

**Q.** What about the TGI [6] of the same molecule?
**A.** The TGI was 2.75 µM.

**Q.** Brc1ccccc2cc(-c3ccccc3)nc1-2 was tested. Which GI50 [6] did it give?
**A.** Its GI50 is 4700 nM.

**Q.** And the TGI [6]?
**A.** Its TGI is over 56.6 µM.

Source: PubChem BioAssay (NCI)
